Assay results taken from US20030186887A1, “Compounds for detection of infection by chlamydophila abortus” (priority 2000, published 2003).
Like-named read-outs stand apart in the source and are kept apart here. Ends that are not written are not given here. * marks the point of attachment. Biotin = O=C1N[C@H]2[C@H](CS[C@H]2CCCCC(=O)*)N1

What was measured:
[1] = test system: sera from sheep free of infection with C. abortus
Text: In the Applicant's experience at least two different forms of microtitration plates may be used. One form uses tresyl-activated dextran, which is applied to the polystyrene plate and forms a layer between the plate and the peptide (Gregorius et al., 1995). The commercially available plates (‘Aquabind™’) are produced by M&E, Denmark and marketed in the UK through Labsystems by Life Sciences. […] The second form of plate is one modified by coating with streptavidin. Such plates are commercially available e.g. Labsystems, Pierce and Warriner. […] The preferred microtitration plate types used to bind streptavidin are those modified to provide high protein binding e.g. Dynex Immulon 2, Greiner High Bind. To each well is added streptavidin in 150 μl volumes. The plates are incubated, preferably for 2 hours at 35-37° C., then the contents ejected and the plates washed 3 times with PBS buffer, pH 7.4 (Appendix). The plates are thoroughly dried and stored at 4° C. until required. Application of the peptide mixture is performed as follows:
The stock solutions (1 mg per ml) of the selected peptides are diluted in the same volume of carbonate-bicarbonate buffer, pH 9.6, to their optimum concentration. […] The peptide mixture solution is added in volumes of 150 μl per well. In a ‘controlled’ test, the peptide mixture is added to all wells in even numbered columns, while carbonate-bicarbonate buffer is added to all wells in odd-numbered columns in the same volume per well. In ‘screen’ tests, where control wells are not used for each sample, the peptide mixture is added to all 96 wells on the plate. The plates are incubated, preferably at 4° C. for 4 to 12 hours, then washed 4 times with PBS/Tween buffer (Appendix) and thoroughly dried, preferably for 4 hours in a fan-driven cabinet. The coated plates are placed in watertight bags with a desiccant, and the bags sealed and stored at 4° C. until required.
Two dilutions of standard serum are used. One, employed at a dilution of 1 in 1000, is used to indicate successful performance of the test (‘standard positive’). […] In the kits, the positive and cut-off standards are provided pre-diluted to working strength in a proprietary stabilisation buffer (Dako) which contains a preservative (ProClin 300; Supelco; used at 1 in 2000), and are not diluted further before addition to the test plate.
The test serum samples are diluted 1:100 in Serum Conjugate Diluent (Appendix). The test kits provide a Diluter plate, which has very low protein binding properties. By adding 15 μl of serum to 135 μl of Serum Conjugate Diluent on the Diluter plate, an initial 1 in 10 dilution is achieved. Transfer of 15 μl from the Diluter plate to 135 μl of Serum Conjugate Diluent dispensed into each well in the test plate enables a further dilution to 1 in 100 (from the original sample) on the test plate. […] Dilution of sera can also be performed, if preferred, in bijoux or tubes before their addition in 150 μl volumes to the Test plate.
Test and standard sera are incubated on the Test plate for 15 min at room temperature (˜20° C.), then 30 min at 37° C. Plate contents are then ejected and the plate washed 4 times with PBS/Tween (Appendix) and dried.
A probe to detect the presence of immunoglobulin, to which is conjugated an enzyme (the ‘conjugate’), is then added. Preferably, the probe constitutes Protein G (recombinant form, in which the moiety that binds to albumin has been eliminated; available from Sigma and Calbiochem) conjugated with horse radish peroxidase, but many forms of conjugate are available. These include, as probes, Protein A; and monoclonal or polyclonal antibodies against the immunoglobulins of the species providing the test sample.

antibodies to C. abortus = test: ELISA, serological reactivity of biotinylated peptides against serum dilutions (Tables 1 and 2); format: binding, sheep
Method: (§1) Application of the peptide mixture is performed as follows:
(§2) Two dilutions of standard serum are used.
The data illustrate that the length of compound has a major impact on serological reactivity.
Thus, substitutions within the core epitopes described in this invention are possible without too much loss in compound serological reactivity.

[2] = test system: sera from ewes known not to have been infected with C. abortus; SPF lamb antisera; test: ELISA, specificity of peptides with sera from uninfected ewes and SPF lamb antisera (first Table 4); format: binding, sheep; parameters: reactivity with serum (quantity not given): unit not given here
Method: as §1, §2
Specificities of Peptides 2-9,2-10, 1B, 1A/1A and 4B/4B as tested with sera from ewes known not to have been infected with C. abortus, and which had shown positive reactivity in previous tests with various forms of VS 1 and VS2.

[3] = PS (Positive Control Serum) 1/1000
[4] = PS (Positive Control Serum) 1/15000
[5] = serum of Animal No. 19, sheep free of infection with C. abortus
[6] = SPF lamb antiserum 2397/2 C.ab, vaccinated with S26/3 (C. abortus)
[7] = SPF lamb antiserum 2401/2 C.ab, vaccinated with S26/3 (C. abortus)
[8] = SPF lamb antiserum 2405/2 C.ab, vaccinated with 28/28 (C. abortus)
[9] = SPF lamb antiserum 2406/2 C.ab, vaccinated with 28/68 (C. abortus)
[10] = SPF lamb antiserum 2407/2 W73, vaccinated with W73 (C. pecorum)
[11] = SPF lamb antiserum F6/2 Cap.ab, vaccinated with Cap. abortion 15 (C. abortus)
[12] = SPF lamb serum 2397/1, pre-vaccination

| Substance | Net OD [Gross OD - No compound OD] [1, 3] | Net OD [Gross OD - No compound OD] [1, 4] | Net OD [Gross OD - No compound OD] [1, 5] | reactivity with serum (quantity not given) [2, 6] | reactivity with serum (quantity not given) [2, 7] | reactivity with serum (quantity not given) [2, 8] | reactivity with serum (quantity not given) [2, 9] | reactivity with serum (quantity not given) ([2]; serum of animal no. 1354R) | reactivity with serum (quantity not given) ([2]; serum of animal no. 2948) | reactivity with serum (quantity not given) [2, 10] | reactivity with serum (quantity not given) [2, 11] | reactivity with serum (quantity not given) [2, 12] | reactivity with serum (quantity not given) ([2]; serum of animal no. A2213) | reactivity with serum (quantity not given) ([2]; serum of animal no. B2123) | reactivity with serum (quantity not given) ([2]; serum of animal no. Z2611) | further results |
| --- | --- | --- | --- | --- | --- | --- | --- | --- | --- | --- | --- | --- | --- | --- | --- | --- |
| Biotin-KKKKKKKGVKGSSIAADQLPN [Compound 2-7] | 1.038 | 0.059 | 0.119 | – | – | – | – | – | – | – | – | – | – | – | – | Net OD [Gross OD - No compound OD] ([1]; serum of Animal No. 11, sheep free of infection with C. abortus): 0.607; Net OD [Gross OD - No compound OD] ([1]; serum of Animal No. 13, sheep free of infection with C. abortus): 0.198; Net OD [Gross OD - No compound OD] ([1]; serum of Animal No. 29, sheep free of infection with C. abortus): 0.144 |
| Biotin-KKKKKKKKKKKGSSIAAD [Compound 2-3] | – | – | – | – | – | – | – | – | – | – | – | – | – | – | – | Net Optical Density (antibodies to C. abortus; serum dilution 1/100): 2.075; Net Optical Density (antibodies to C. abortus; serum dilution 1/200): 1.133; Net Optical Density (antibodies to C. abortus; serum dilution 1/400): 0.540; Net Optical Density (antibodies to C. abortus; serum dilution 1/800): 0.214; Net Optical Density (antibodies to C. abortus; serum dilution 1/1600): 0.095; Net Optical Density (antibodies to C. abortus; serum dilution 1/3200): 0.031; Net Optical Density (antibodies to C. abortus; serum dilution 1/6400): 0.007 |
| Biotin-KTITGKKKKGTAAANYKTPTD [Compound 1-6] | 3.352 | 0.354 | 1.316 | – | – | – | – | – | – | – | – | – | – | – | – | Net OD [Gross OD - No compound OD] ([1]; serum of Animal No. 28, sheep free of infection with C. abortus): 0.114; Net OD [Gross OD - No compound OD] ([1]; serum of Animal No. 31, sheep free of infection with C. abortus): 0.636; Net OD [Gross OD - No compound OD] ([1]; serum of Animal No. 36, sheep free of infection with C. abortus): 0.500; Net OD [Gross OD - No compound OD] ([1]; serum of Animal No. 37, sheep free of infection with C. abortus): 0.344 |
| GVKGSSIAADQGVKGSSIAADQ (GVKGSSIAADQGVKGSSIAADQ) [Compound 2-10] | – | – | – | 3.1 | 1.5 | 2.6 | 1.6 | 0.9 | 0.5 | – | – | – | – | – | – | reactivity with serum (quantity not given) ([2]; serum of animal no. 1715T): 0.3; reactivity with serum (quantity not given) ([2]; serum of animal no. 3174): 1.3; reactivity with serum (quantity not given) ([2]; serum of animal no. A2332): 1.0; reactivity with serum (quantity not given) ([2]; serum of animal no. Z2600): 1.1; reactivity with serum (quantity not given) ([2]; serum of animal no. Z2708): 0.55 |
| KTITGMTGTAAANYKTITGM (KTITGMTGTAAANYKTITGM) [Compound 1B] | – | – | – | OVER | OVER | OVER | OVER | 2.3 | – | 1.3 | 0.9 | OVER | OVER | 1.55 | 0.6 | reactivity with serum (quantity not given) ([2]; serum of animal no. 3178): 0.7; reactivity with serum (quantity not given) ([2]; serum of animal no. Z2680): 0.5 |
| TGTAAANYKTTGTAAANYKT (TGTAAANYKTTGTAAANYKT) [Compound 1A/1A] | – | – | – | OVER | OVER | OVER | OVER | 2.3 | 0.6 | 1.8 | 0.9 | OVER | OVER | 2.0 | 1.0 | specificity compared with 1B (in words) [2]: less specific; reactivity with serum (quantity not given) ([2]; SPF lamb antiserum F4/2 84-796, vaccinated with 84-796 (C. pecorum)): 0.4; reactivity with serum (quantity not given) ([2]; SPF lamb antiserum F7/2 P787, vaccinated with P787 (C. pecorum)): 0.5; reactivity with serum (quantity not given) ([2]; serum of animal no. A2261): 0.7; reactivity with serum (quantity not given) ([2]; serum of animal no. Y10-8-14): 1.2; reactivity with serum (quantity not given) ([2]; serum of animal no. Y10-8-37): 0.8; reactivity with serum (quantity not given) ([2]; serum of animal no. Z2646): 0.4; reactivity with serum (quantity not given) ([2]; serum of animal no. Z2656): 0.66 |
